The text below walks through data of patent US10508085B2, “Compounds and methods for IDO and TDO modulation, and indications therefor” (Plexxikon Inc., priority 2016, dated 2019).

The structures appear in SMILES notation.

By IC50 is commonly meant the point on the concentration scale where inhibition reaches its midpoint.

The target of experiment [1] is T1, Human Tryptophan 2,3-dioxygenase (TDO) (Homo sapiens, UniProt P48775).
T1 construct: His tag (N); made in house; host or cells: E. coli
The experiment can be described thus: Human TDO enzymatic assay (kynurenine level). It counts as biochemical. Conditions: 1 nM TDO, 350 μM L-Trp; geometric mean; read-out: TDO GMean: IC50 (μM) (Biochemical Assay). In short, it runs like this:
(§1)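 N-His human IDO (6 nM, 10 μM L-Trp, 5 μM methylene blue, 20 min) or TDO (1 nM, 350 μM L-Trp, 0.4 μM methylene blue, 70 min) run at room temp in pH 6.5 phosphate with ascorbate, catalase, Tween 20. TCA stop, 30 min 50 °C converts N-formylkynurenine to kynurenine; IC50 by nonlinear regression.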

Experiment [2] concerns the target T2, human IDO (IDO1-expressing HEK293 cells) (Homo sapiens, UniProt P14902).
T2 construct: expressed in transfected cells
Nature of the experiment: Cell based kynurenine assay, IDO1-expressing HEK293 cell clones. Conditions: IDO1-expressing HEK293 cells, 24 hours incubation; geometric mean; read-out: HEK293 IDO1 Kynurenine GMean IC50 (μM) (Cellular Assay). The method, boiled down: (§2)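 Stably transfected HEK293 clones expressing human IDO1 or TDO (CMV promoter) were seeded at 2.5×10^4 cells/well and treated with serially diluted compounds for 24 h. Supernatant kynurenine was then measured, and % inhibition versus DMSO-treated cell and media-only controls was fitted by nonlinear regression to give IC50.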

Experiment [3] has as its target T3, Human Indoleamine 2,3-dioxygenase (IDO) (Homo sapiens, UniProt P14902).
T3 construct: His tag (N); made in house; host or cells: E. coli
The experiment can be described thus: Human IDO enzymatic assay (kynurenine level). It counts as biochemical. Conditions: 6 nM IDO, 10 μM L-Trp; geometric mean; read-out: IDO1 GMean: IC50 (μM) (Biochemical Assay). The method, boiled down:
as §1

Experiment [4] deals with T4, human TDO (TDO-expressing HEK293 cells) (Homo sapiens, UniProt P48775).
T4 construct: expressed in transfected cells
Nature of the experiment: Cell based kynurenine assay, TDO-expressing HEK293 cell clones. Conditions: TDO-expressing HEK293 cells, 24 hours incubation; geometric mean; read-out: HEK293 TDO Kynurenine GMean IC50 (μM) (Cellular Assay). In short, it runs like this: as §2

T1 sequence (P48775 whole entry): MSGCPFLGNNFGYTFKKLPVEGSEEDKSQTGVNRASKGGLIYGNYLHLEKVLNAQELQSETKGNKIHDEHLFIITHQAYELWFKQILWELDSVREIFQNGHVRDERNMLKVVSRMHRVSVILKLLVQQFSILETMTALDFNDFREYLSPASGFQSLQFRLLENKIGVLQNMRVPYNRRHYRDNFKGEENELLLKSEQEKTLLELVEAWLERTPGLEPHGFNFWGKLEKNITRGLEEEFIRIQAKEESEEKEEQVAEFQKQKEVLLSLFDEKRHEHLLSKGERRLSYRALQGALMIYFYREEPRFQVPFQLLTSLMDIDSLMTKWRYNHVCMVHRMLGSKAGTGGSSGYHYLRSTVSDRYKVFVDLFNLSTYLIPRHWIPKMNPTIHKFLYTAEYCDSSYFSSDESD
T4 sequence (P48775 whole entry): as above
T3 sequence (P14902 whole entry): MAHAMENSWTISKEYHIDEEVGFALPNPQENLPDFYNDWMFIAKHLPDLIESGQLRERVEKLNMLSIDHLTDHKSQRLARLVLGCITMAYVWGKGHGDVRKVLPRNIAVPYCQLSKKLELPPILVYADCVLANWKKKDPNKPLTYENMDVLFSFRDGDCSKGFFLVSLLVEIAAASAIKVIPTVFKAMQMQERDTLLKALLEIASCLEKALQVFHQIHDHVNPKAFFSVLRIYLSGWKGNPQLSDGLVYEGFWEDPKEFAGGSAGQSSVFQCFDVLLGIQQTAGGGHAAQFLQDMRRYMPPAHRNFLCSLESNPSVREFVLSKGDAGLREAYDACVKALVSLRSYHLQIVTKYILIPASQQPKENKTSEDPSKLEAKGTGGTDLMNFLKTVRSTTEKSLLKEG
T2 sequence (P14902 whole entry): as above

`CC(C)(C1CCN(C(=O)Nc2ccc(F)cc2)CC1)C(O)c1cc(Cl)cc2cn[nH]c12` (centres unmarked) [Compound P-0167, 4-(1-(5-chloro-1H-indazol-7-yl)-1-hydroxy-2-methylpropan-2-yl)-N-(4-fluorophenyl)piperidine-1-carboxamide]: the IC50 in experiment [1], in experiment [2], in experiment [3] and in experiment [4] was 0.0001 to 10 µM each time.
Take `CC(C)(C1CCN(C(=O)Nc2ccc(C#N)cc2)CC1)C(O)c1cc(Cl)cc2cn[nH]c12` (centres unmarked) [Compound P-0168, 4-(1-(5-chloro-1H-indazol-7-yl)-1-hydroxy-2-methylpropan-2-yl)-N-(4-cyanophenyl)piperidine-1-carboxamide]: the IC50 in experiment [1], in experiment [2], in experiment [3] and in experiment [4] was 0.0001 to 10 µM in each case.
Turning to `CNC(=O)N1CCC(C(C)(C)C(O)c2cc(Cl)cc3[nH]ncc23)CC1` (centres unmarked) [Compound P-0169, 4-(1-(6-chloro-1H-indazol-4-yl)-1-hydroxy-2-methylpropan-2-yl)-N-methylpiperidine-1-carboxamide], the half-maximal inhibitory concentration (IC50) in experiment [1], in experiment [2], in experiment [3] and in experiment [4] was 0.0001 to 10 µM each time.
Take `CCC(=O)NC(C)(C)CC(O)c1cc(Cl)cc2cn[nH]c12` (centres unmarked) [Compound P-0170, N-(4-(5-chloro-1H-indazol-7-yl)-4-hydroxy-2-methylbutan-2-yl)propionamide]: the IC50 in experiment [1] is 0.0001 to 10 µM; in experiment [2] it was greater than 10 µM; in experiment [3], 0.0001 to 10 µM; in experiment [4] it was greater than 10 µM.
With `CC(C)(C1CCN(S(C)(=O)=O)CC1)C(O)c1cc(Cl)cc2[nH]ncc12` (centres unmarked) [Compound P-0171, 1-(6-chloro-1H-indazol-4-yl)-2-methyl-2-(1-(methylsulfonyl)piperidin-4-yl)propan-1-ol], the IC50 in experiment [1] is 0.0001 to 10 µM; in experiment [2], greater than 10 µM; in experiment [3], 0.0001 to 10 µM; in experiment [4] it was 0.0001 to 10 µM.
Turning to `CC(=O)N1CCC(C(C)(C)C(O)c2cc(Cl)cc3[nH]ncc23)CC1` (centres unmarked) [Compound P-0172, 1-(4-(1-(6-chloro-1H-indazol-4-yl)-1-hydroxy-2-methylpropan-2-yl)piperidin-1-yl)ethan-1-one], the IC50 in experiment [1], in experiment [2], in experiment [3] and in experiment [4] was 0.0001 to 10 µM each time.
`OC(c1cc(Cl)cc2[nH]ncc12)C1CCCCC1` (centres unmarked) [Compound P-0173, (6-chloro-1H-indazol-4-yl)(cyclohexyl)methanol]: the concentration for half-maximal inhibition (IC50) was 0.0001 to 10 µM in experiment [1], greater than 10 µM in experiment [2], 0.0001 to 10 µM in experiment [3] and 0.0001 to 10 µM in experiment [4].
For `CC(C)(C1CCOCC1)C(O)c1cc(Cl)cc2[nH]ncc12` (centres unmarked) [Compound P-0174, 1-(6-chloro-1H-indazol-4-yl)-2-methyl-2-(tetrahydro-2H-pyran-4-yl)propan-1-ol], the concentration for half-maximal inhibition (IC50) in experiment [1], in experiment [2], in experiment [3] and in experiment [4] was 0.0001 to 10 µM each time.
As for `CC(C)(C1CCN(C(=O)NCC(F)(F)F)CC1)C(O)c1cc(Cl)cc2cn[nH]c12` (centres unmarked) [Compound P-0175, 4-(1-(5-chloro-1H-indazol-7-yl)-1-hydroxy-2-methylpropan-2-yl)-N-(2,2,2-trifluoroethyl)piperidine-1-carboxamide], the concentration for half-maximal inhibition (IC50) in experiment [1], in experiment [2], in experiment [3] and in experiment [4] was 0.0001 to 10 µM each time.
Take `CC(C)(C1CCN(C(=O)NC2CC2)CC1)C(O)c1cc(Cl)cc2cn[nH]c12` (centres unmarked) [Compound P-0176, 4-(1-(5-chloro-1H-indazol-7-yl)-1-hydroxy-2-methylpropan-2-yl)-N-cyclopropylpiperidine-1-carboxamide]: the half-maximal inhibitory concentration (IC50) in experiment [1], in experiment [2], in experiment [3] and in experiment [4] was 0.0001 to 10 µM in each case.
In the case of `CC(C)(C1CCN(C(=O)OCC(F)(F)F)CC1)C(O)c1cc(Cl)cc2cn[nH]c12` (centres unmarked) [Compound P-0177, 2,2,2-trifluoroethyl 4-(1-(5-chloro-1H-indazol-7-yl)-1-hydroxy-2-methylpropan-2-yl)piperidine-1-carboxylate], the IC50 in experiment [1], in experiment [2], in experiment [3] and in experiment [4] was 0.0001 to 10 µM each time.
As for `CC(C)(C1CCN(C(=O)Nc2ccccc2F)CC1)C(O)c1cc(Cl)cc2cn[nH]c12` (centres unmarked) [Compound P-0178, 4-(1-(5-chloro-1H-indazol-7-yl)-1-hydroxy-2-methylpropan-2-yl)-N-(2-fluorophenyl)piperidine-1-carboxamide], the half-maximal inhibitory concentration (IC50) in experiment [1], in experiment [2], in experiment [3] and in experiment [4] was 0.0001 to 10 µM each time.
Regarding `COc1ccccc1NC(=O)N1CCC(C(C)(C)C(O)c2cc(Cl)cc3cn[nH]c23)CC1` (centres unmarked) [Compound P-0179, 4-(1-(5-chloro-1H-indazol-7-yl)-1-hydroxy-2-methylpropan-2-yl)-N-(2-methoxyphenyl)piperidine-1-carboxamide], the IC50 in experiment [1], in experiment [2], in experiment [3] and in experiment [4] was 0.0001 to 10 µM throughout.
As to `CC(C)(C1CCN(C(=O)Nc2ccccc2C#N)CC1)C(O)c1cc(Cl)cc2cn[nH]c12` (centres unmarked) [Compound P-0180, 4-(1-(5-chloro-1H-indazol-7-yl)-1-hydroxy-2-methylpropan-2-yl)-N-(2-cyanophenyl)piperidine-1-carboxamide], the IC50 in experiment [1], in experiment [2], in experiment [3] and in experiment [4] was 0.0001 to 10 µM each time.
Take `Cc1cccc(NC(=O)N2CCC(C(C)(C)C(O)c3cc(Cl)cc4cn[nH]c34)CC2)c1` (centres unmarked) [Compound P-0181, 4-(1-(5-chloro-1H-indazol-7-yl)-1-hydroxy-2-methylpropan-2-yl)-N-(m-tolyl)piperidine-1-carboxamide]: the half-maximal inhibitory concentration (IC50) in experiment [1], in experiment [2], in experiment [3] and in experiment [4] was 0.0001 to 10 µM in each case.
Take `COc1cccc(NC(=O)N2CCC(C(C)(C)C(O)c3cc(Cl)cc4cn[nH]c34)CC2)c1` (centres unmarked) [Compound P-0182, 4-(1-(5-chloro-1H-indazol-7-yl)-1-hydroxy-2-methylpropan-2-yl)-N-(3-methoxyphenyl)piperidine-1-carboxamide]: the IC50 in experiment [1], in experiment [2], in experiment [3] and in experiment [4] was 0.0001 to 10 µM each time.
`COc1ccc(NC(=O)N2CCC(C(C)(C)C(O)c3cc(Cl)cc4cn[nH]c34)CC2)cc1` (centres unmarked) [Compound P-0183, 4-(1-(5-chloro-1H-indazol-7-yl)-1-hydroxy-2-methylpropan-2-yl)-N-(4-methoxyphenyl)piperidine-1-carboxamide]: the IC50 in experiment [1], in experiment [2], in experiment [3] and in experiment [4] was 0.0001 to 10 µM each time.
Turning to `CC(C)(C1CCN(C(=O)Nc2ccccc2Cl)CC1)C(O)c1cc(Cl)cc2cn[nH]c12` (centres unmarked) [Compound P-0184, 4-(1-(5-chloro-1H-indazol-7-yl)-1-hydroxy-2-methylpropan-2-yl)-N-(2-chlorophenyl)piperidine-1-carboxamide], the half-inhibitory concentration (IC50) in experiment [1], in experiment [2], in experiment [3] and in experiment [4] was 0.0001 to 10 µM each time.
As for `O=C(NC1CC1)N1CCC(C(F)(F)C(O)c2cc(Cl)cc3cn[nH]c23)CC1` (centres unmarked) [Compound P-0185, 4-(2-(5-chloro-1H-indazol-7-yl)-1,1-difluoro-2-hydroxyethyl)-N-cyclopropylpiperidine-1-carboxamide], the half-inhibitory concentration (IC50) in experiment [1], in experiment [2], in experiment [3] and in experiment [4] was 0.0001 to 10 µM in each case.
`OC(c1cc(Cl)cc2cn[nH]c12)C1(C2CCC2)CCC1` (centres unmarked) [Compound P-0186, [1,1′-bi(cyclobutan)]-1-yl(5-chloro-1H-indazol-7-yl)methanol]: the IC50 in experiment [1], in experiment [2], in experiment [3] and in experiment [4] was 0.0001 to 10 µM each time.
As to `OC(c1cc(Cl)cc2cn[nH]c12)C1(C2CCCCC2)CC1` (centres unmarked) [Compound P-0187, (5-chloro-1H-indazol-7-yl)(1-cyclohexylcyclopropyl)methanol], the IC50 in experiment [1], in experiment [2], in experiment [3] and in experiment [4] was 0.0001 to 10 µM in each case.
Consider `OC(c1cc(Cl)cc2cn[nH]c12)C1(Cc2cccc(F)c2)CCC1` (centres unmarked) [Compound P-0188, (5-chloro-1H-indazol-7-yl)(1-(3-fluorobenzyl)cyclobutyl)methanol], for which the half-inhibitory concentration (IC50) is 0.0001 to 10 µM in experiment [1], 0.0001 to 10 µM in experiment [2], 0.0001 to 10 µM in experiment [3] and greater than 10 µM in experiment [4].
For the compound `O=S1(=O)CC(O)(c2cc(Cl)cc3cn[nH]c23)C1` [Compound P-0189, 3-(5-chloro-1H-indazol-7-yl)-3-hydroxythietane 1,1-dioxide], the IC50 in experiment [1] was greater than 200 µM; in experiment [2] it was greater than 10 µM; in experiment [3], greater than 200 µM; in experiment [4] it was 0.0001 to 10 µM.
